In patent US20230104936A1, “TRPML MODULATORS” (Casma Therapeutics, Inc., priority 2019, published 2023):

Test system: TFEB
Assay: TFEB nuclear translocation assay, HeLa wt cells
Format: cell-based
Conditions: 2 hrs compound treatment, Table 1 does not say HeLa wt or TRPML1 KO
How it was run: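 Using 20× epifluorescence of fixed, anti-TFEB-stained HeLa wt cells treated 2 hrs with compound, nuclear versus perinuclear ring intensity was quantified over four fields per well, yielding AC50 values.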

SMILES | AC50 (Homo sapiens, HeLa, 2 h) | AC50
C[C@H]1CN(CC2CCN(c3c(F)cccc3NS(=O)(=O)c3ccc(S(=O)(=O)N(C)C)cc3)CC2)C[C@H](C)O1 (racemic) [Compound A-843, rel-N1-(2-(4-((2,6-dimethylmorpholino)methyl)piperidin-1-yl)-3-fluorophenyl)-N4,N4-dimethylbenzene-1,4-disulfonamide] | ≤ 2000 nM | –
Cc1noc(NS(=O)(=O)c2ccc(S(=O)(=O)N(C)C)cc2)c1C1=CCN(c2ccc(Cl)cc2F)CC1 [Compound A-65, N1-(4-(1-(4-chloro-2-fluorophenyl)-1,2,3,6-tetrahydropyridin-4-yl)-3-methylisoxazol-5-yl)-N4,N4-dimethylbenzene-1,4-disulfonamide] | ≥ 10000 nM | –
O=S(=O)(Nc1cccc(Cl)c1N1CCOCC1)c1ccc(C2CC2)cc1 [Compound A-391, N-[3-chloro-2-(morpholin-4-yl)phenyl]-4-cyclopropylbenzene-1-sulfonamide] | 2010 to 8000 nM | –
C[C@H]1COC[C@H](C)N1CC1CCN(c2c(F)cccc2NS(=O)(=O)c2ccc(S(=N)(=O)N(C)C)cc2)CC1 (stereo partly drawn) [Compound A-840, N-(2-(4-(((3S,5S)-3,5-dimethylmorpholino)methyl)piperidin-1-yl)-3-fluorophenyl)-4-(N,N-dimethylsulfamidimidoyl)benzenesulfonamide] | – | ≤ 2000 nM
CN(C)S(=O)(=O)c1ccc(NC(=O)c2ccccc2N2CCN(c3ccc(Cl)cc3F)CC2)cc1 [Compound A-9, 2-(4-(4-chloro-2-fluorophenyl)piperazin-1-yl)-N-(4-(N,N-dimethylsulfamoyl)phenyl)benzamide] | ≤ 2000 nM | –
CN(C)S(=O)(=O)c1ccc(S(=O)(=O)Nc2cccc(F)c2N2CCC(CN3CCCC(F)(F)C3)CC2)cc1 [Compound A-773, N4-(2-{4-[(3,3-difluoropiperidin-1-yl)methyl]piperidin-1-yl}-3-fluorophenyl)-N1,N1-dimethylbenzene-1,4-disulfonamide] | ≤ 2000 nM | –
O=S(=O)(CC12CC3CC(CC(C3)C1)C2)Nc1cccc(Cl)c1N1CCOCC1 [Compound A-394, 1-(adamantan-1-yl)-N-[3-chloro-2-(morpholin-4-yl)phenyl]methanesulfonamide] | 2010 to 8000 nM | –
CCC1(N2CCCC2)CCN(c2ccccc2NS(=O)(=O)c2ccc(S(=O)(=O)N(C)C)cc2)CC1 [Compound A-452, N4-{2-[4-ethyl-4-(pyrrolidin-1-yl)piperidin-1-yl]phenyl}-N1,N1-dimethylbenzene-1,4-disulfonamide] | 8010 to 9990 nM | –
COCC1(C)CCN(c2ccccc2NS(=O)(=O)Cc2cccc3c2COC3)CC1 [Compound A-607, 1-(1,3-dihydro-2-benzofuran-4-yl)-N-{2-[4-(methoxymethyl)-4-methylpiperidin-1-yl]phenyl}methanesulfonamide] | 2010 to 8000 nM | –
Cc1ccc(S(=O)(=O)Nc2ccccc2N2CCC(c3ccc(Cl)cc3F)C2)cc1 (stereo not shown) [Compound A-102, N-{2-[3-(4-chloro-2-fluorophenyl)pyrrolidin-1-yl]phenyl}-4-methylbenzene-1-sulfonamide] | 2010 to 8000 nM | –
CN(C)S(=O)(=O)c1ccc(S(=O)(=O)Nc2ccccc2N2CCC3(CC2)OCc2cc(F)ccc23)cc1 [Compound A-258, N4-(2-{5-fluoro-3H-spiro[2-benzofuran-1,4′-piperidin]-1′-yl}phenyl)-N1,N1-dimethylbenzene-1,4-disulfonamide] | ≤ 2000 nM | –
CN(C)S(=O)(=O)c1ccc(S(=O)(=O)Nc2ccccc2N2C3CCC2CN(C(=O)C(C)(C)C)C3)cc1 [Compound A-354, N4-{2-[3-(2,2-dimethylpropanoyl)-3,8-diazabicyclo[3.2.1]octan-8-yl]phenyl}-N1,N1-dimethylbenzene-1,4-disulfonamide] | ≥ 10000 nM | –
Cc1ccc(S(=O)(=O)Nc2ccccc2N2CCN(C(=O)C(=O)c3ccccc3)CC2)cc1 [Compound A-350, 4-methyl-N-{2-[4-(2-oxo-2-phenylacetyl)piperazin-1-yl]phenyl}benzene-1-sulfonamide] | 2010 to 8000 nM | –
O=S(=O)(Nc1cc(Cl)ccc1N1CCOCC1)c1ccc(S(=O)(=O)C(F)F)cc1 [Compound A-277, N-[5-chloro-2-(morpholin-4-yl)phenyl]-4-difluoromethanesulfonylbenzene-1-sulfonamide] | ≥ 10000 nM | –
CN(C)S(=O)(=O)c1ccc(S(=O)(=O)Nc2ccccc2N2CCN(CC3CCCO3)CC2)cc1 (stereo not shown) [Compound A-495, N1,N1-dimethyl-N4-(2-{4-[(oxolan-2-yl)methyl]piperazin-1-yl}phenyl)benzene-1,4-disulfonamide] | 8010 to 9990 nM | –
COCC1(C)CCN(c2ccccc2NS(=O)(=O)c2ccc(C)cc2)CC1 [Compound A-539, N-{2-[4-(methoxymethyl)-4-methylpiperidin-1-yl]phenyl}-4-methylbenzene-1-sulfonamide] | ≤ 2000 nM | –
CCOC(=O)CC1(F)CCN(c2ccccc2NS(=O)(=O)c2ccc(S(=O)(=O)N(C)C)cc2)CC1 [Compound A-703, ethyl 2-(1-{2-[4-(dimethylsulfamoyl)benzenesulfonamido]phenyl}-4-fluoropiperidin-4-yl)acetate] | ≤ 2000 nM | –

SMILES | AC50 (Homo sapiens, HeLa, 2 h) | AC50
CCC(C)(C)CC(=O)N1CCN(c2ccccc2NS(=O)(=O)c2ccc(S(=O)(=O)N(C)C)cc2)CC1 [Compound A-426, N4-{2-[4-(3,3-dimethylpentanoyl)piperazin-1-yl]phenyl}-N1,N1-dimethylbenzene-1,4-disulfonamide] | ≤ 2000 nM | –
CC(c1ccncc1N1CCC(CN2C[C@@H](C)O[C@@H](C)C2)CC1)S(=O)(=O)c1ccc(S(=O)(=O)N(C)C)cc1 (stereo partly drawn) [Compound A-850, 4-{1-[3-(4-{[(2R,6S)-2,6-dimethylmorpholin-4-yl]methyl}piperidin-1-yl)pyridin-4-yl]ethanesulfonyl}-N,N-dimethylbenzene-1-sulfonamide] | 2010 to 8000 nM | –
O=S(=O)(Nc1cc(Cl)ccc1N1CCC2(C1)OCc1ccccc12)c1ccc2c(c1)CCC2 (stereo not shown) [Compound A-357, N-(5-chloro-2-{3H-spiro[2-benzofuran-1,3′-pyrrolidin]-1′-yl}phenyl)-2,3-dihydro-1H-indene-5-sulfonamide] | ≥ 10000 nM | –
CC(c1cccc(F)c1N1CCC(CN2C3CCC2COC3)CC1)S(=O)(=O)c1ccc(C(F)F)cc1 (stereo not shown) [Compound A-906, 8-{[1-(2-{1-[4-(difluoromethyl)benzenesulfonyl]ethyl}-6-fluorophenyl)piperidin-4-yl]methyl}-3-oxa-8-azabicyclo[3.2.1]octane] | ≤ 2000 nM | –
O=S(=O)(Nc1ccccc1N1CCC(c2ccc(Cl)cc2F)CC1)c1cccc(F)c1F [Compound A-97, N-{2-[4-(4-chloro-2-fluorophenyl)piperidin-1-yl]phenyl}-2,3-difluorobenzene-1-sulfonamide] | ≥ 10000 nM | –
CC1(C)CC2(CCN(c3ccccc3NS(=O)(=O)c3ccc(Br)cc3)CC2)CO1 [Compound A-691, 4-bromo-N-(2-{3,3-dimethyl-2-oxa-8-azaspiro[4.5]decan-8-yl}phenyl)benzene-1-sulfonamide] | 2010 to 8000 nM | –
O=S(=O)(Nc1ccccc1N1CCN(c2ccc(Cl)cc2F)CC1)N1CCOCC1 [Compound A-43, N-{2-[4-(4-chloro-2-fluorophenyl)piperazin-1-yl]phenyl}morpholine-4-sulfonamide] | ≤ 2000 nM | –
CN(C)S(=O)(=O)c1ccc(S(=O)(=O)N(C)c2cccc(Cl)c2N2CCOCC2)cc1 [Compound A-286, N1-[3-chloro-2-(morpholin-4-yl)phenyl]-N1,N4,N4-trimethylbenzene-1,4-disulfonamide] | ≥ 10000 nM | –
CN(C)S(=O)(=O)c1ccc(S(=O)(=O)Nc2ccccc2N2CCN(C(=O)C3CC(F)(F)C3)CC2)cc1 [Compound A-429, N4-{2-[4-(3,3-difluorocyclobutanecarbonyl)piperazin-1-yl]phenyl}-N1,N1-dimethylbenzene-1,4-disulfonamide] | 2010 to 8000 nM | –
CN(C)S(=O)(=O)c1ccc(S(=O)(=O)Nc2ccccc2N2CCN(C(=O)C3(CF)CCC3)CC2)cc1 [Compound A-430, N4-(2-{4-[1-(fluoromethyl)cyclobutanecarbonyl]piperazin-1-yl}phenyl)-N1,N1-dimethylbenzene-1,4-disulfonamide] | 2010 to 8000 nM | –
C[C@@H](c1cccc(F)c1N1CCC(C(F)(F)F)CC1)S(=O)(=O)c1ccc(S(=N)(=O)N(C)C)cc1 (single isomer, unassigned) [Compound A-935] | – | ≤ 2000 nM
CN(C)S(=O)(=O)c1ccc(S(=O)(=O)Nc2ccccc2N2CCC(O)(c3ccc(F)cc3F)CC2)cc1 [Compound A-141, N4-{2-[4-(2,4-difluorophenyl)-4-hydroxypiperidin-1-yl]phenyl}-N1,N1-dimethylbenzene-1,4-disulfonamide] | ≤ 2000 nM | –
COCC1(C)CCN(c2ccccc2NS(=O)(=O)c2ccc3c(c2)COC3(C)C)CC1 [Compound A-682, N-{2-[4-(methoxymethyl)-4-methylpiperidin-1-yl]phenyl}-1,1-dimethyl-1,3-dihydro-2-benzofuran-5-sulfonamide] | 2010 to 8000 nM | –
CC(c1cccc(F)c1N1CCCCC1)[S+]([O-])c1ccc(S(=O)(=O)C(F)F)cc1 (stereo not shown) [Compound A-972, 1-{2-[1-(4-difluoromethanesulfonylbenzenesulfinyl)ethyl]-6-fluorophenyl}piperidine] | 2010 to 8000 nM | –
Cc1nc(C)c(S(=O)(=O)Nc2ccccc2N2CCN(c3ccc(Cl)cc3F)CC2)s1 [Compound A-7, N-{2-[4-(4-chloro-2-fluorophenyl)piperazin-1-yl]phenyl}-2,4-dimethyl-1,3-thiazole-5-sulfonamide] | ≤ 2000 nM | –
CCOC(=O)c1ccc(S(=O)(=O)Nc2ccccc2N2CCC(c3ccc(Cl)cc3F)CC2)cc1 [Compound A-41, ethyl 4-({2-[4-(4-chloro-2-fluorophenyl)piperidin-1-yl]phenyl}sulfamoyl)benzoate] | ≥ 10000 nM | –
CN(C)S(=O)(=O)c1ccc(S(=O)(=O)n2nc(C3CCN(c4c(F)cccc4F)CC3)c3c2CCCN3)cc1 [Compound A-503, 4-((3-(1-(2,6-difluorophenyl)piperidin-4-yl)-4,5,6,7-tetrahydro-1H-pyrazolo[4,3-b]pyridin-1-yl)sulfonyl)-N,N-dimethylbenzenesulfonamide] | ≤ 2000 nM | –
